The source of these data is PMC8880313, “Discovery of Novel Andrographolide Derivatives as Antiviral Inhibitors against Human Enterovirus A71” (Pharmaceuticals, 2022).

Molecules are shown by their SMILES.

The subject of the assay is EV-A71 proteins, VP2 and VP0. The assay is described as follows: SDS-PAGE and Western blot of EV-A71 proteins. The format is cell-based, human enterovirus A71 (EV-A71) strain 41. The note with it: 6 h. The method, then:
Since ZAF-47 possibly targets EV-A71 post-entry stages, we were interested in looking at the effect of ZAF-47 on EV-A71 protein expression. To do so, we first infected RD cells with EV-A71. We then treated the infected cells with different concentration of ZAF-47 for 6 h and collected the cell lysates for SDE-PAGE and Western blot. […] Since ZAF-47 acts on the post-entry stages and reduces EV-A71 protein expression, we hypothesized that ZAF-47 could be inhibiting RNA replication or protein translation, or possibly both, resulting in reduced viral protein expression.
Seeded 24-well plates, with 1.5 × 10^5 RD cells per well, were incubated overnight at 37 °C with 5% CO2. After which, the cells were subjected to EV-A71 infection (100 µL per well, MOI = 1) for 1 h. Reduced serum DMEM was used for mock-infection. The infected cells were then rinsed with PBS twice before treatment with 0.1% DMSO or ZAF-47 at various concentrations for 6 h at 37 °C with 5% CO2. After 6 h of drug treatment, cells were lysed with 100 µL of 1x Laemmli buffer and cell lysate was stored at −80 °C.
The cell lysate samples were subsequently boiled for 10 min at 100 °C and loaded on to a 10% acrylamide gel. SDS-PAGE was run for 2.5 h at 100V to separate the proteins. Bio Basic 10–250 kDa Protein Ladder BZ0011G (Bio Basic, Markham, Canada) was also loaded as a molecular-weight size marker. […]
(In general: In western blotting, separated proteins are transferred to a membrane and probed.)

Regarding `CC(=O)OC[C@]1(C)C(=O)CC[C@@]2(C)C(C/C=C3/C(=O)OC[C@@H]3Oc3cccc4cccnc34)=C(C)CC[C@@H]21` [ZAF-47, (14β)-(8′-Quinolinoxy)-3-ketone-9-dehydro-17-hydro-19-acetoxy–andrographolide], where the note is “5 µM, normalized with β-actin”, the “VP0 band intensity reduction in comparison to the control” value is on record as 35 fold. For the same compound, the VP2 band entry (different concentrations) is on record as “not with any ZAF-47 treatment”.
